The record followed here is ChEMBL document CHEMBL5678818, “Discovery of potent SOS1 inhibitors that block RAS activation via disruption of the RAS-SOS1 interaction” (Proc Natl Acad Sci U S A, 2019).

The target of assay [1] is Serine/threonine-protein kinase 24 (Homo sapiens) (UniProt Q9Y6E0). The assay can be described thus: Inhibition of MST3 (unknown origin) assessed as residual activity at 1000 nM by KINOMEscan analysis relative to control.
The species named for assay [2] is Homo sapiens. The assay can be described thus: Inhibition of JNK1 (unknown origin) assessed as residual activity at 1000 nM by KINOMEscan analysis relative to control.
Assay [3] addresses T1, Mitogen-activated protein kinase kinase kinase 5 (Homo sapiens) (UniProt Q99683).
T1 sequence (whole entry): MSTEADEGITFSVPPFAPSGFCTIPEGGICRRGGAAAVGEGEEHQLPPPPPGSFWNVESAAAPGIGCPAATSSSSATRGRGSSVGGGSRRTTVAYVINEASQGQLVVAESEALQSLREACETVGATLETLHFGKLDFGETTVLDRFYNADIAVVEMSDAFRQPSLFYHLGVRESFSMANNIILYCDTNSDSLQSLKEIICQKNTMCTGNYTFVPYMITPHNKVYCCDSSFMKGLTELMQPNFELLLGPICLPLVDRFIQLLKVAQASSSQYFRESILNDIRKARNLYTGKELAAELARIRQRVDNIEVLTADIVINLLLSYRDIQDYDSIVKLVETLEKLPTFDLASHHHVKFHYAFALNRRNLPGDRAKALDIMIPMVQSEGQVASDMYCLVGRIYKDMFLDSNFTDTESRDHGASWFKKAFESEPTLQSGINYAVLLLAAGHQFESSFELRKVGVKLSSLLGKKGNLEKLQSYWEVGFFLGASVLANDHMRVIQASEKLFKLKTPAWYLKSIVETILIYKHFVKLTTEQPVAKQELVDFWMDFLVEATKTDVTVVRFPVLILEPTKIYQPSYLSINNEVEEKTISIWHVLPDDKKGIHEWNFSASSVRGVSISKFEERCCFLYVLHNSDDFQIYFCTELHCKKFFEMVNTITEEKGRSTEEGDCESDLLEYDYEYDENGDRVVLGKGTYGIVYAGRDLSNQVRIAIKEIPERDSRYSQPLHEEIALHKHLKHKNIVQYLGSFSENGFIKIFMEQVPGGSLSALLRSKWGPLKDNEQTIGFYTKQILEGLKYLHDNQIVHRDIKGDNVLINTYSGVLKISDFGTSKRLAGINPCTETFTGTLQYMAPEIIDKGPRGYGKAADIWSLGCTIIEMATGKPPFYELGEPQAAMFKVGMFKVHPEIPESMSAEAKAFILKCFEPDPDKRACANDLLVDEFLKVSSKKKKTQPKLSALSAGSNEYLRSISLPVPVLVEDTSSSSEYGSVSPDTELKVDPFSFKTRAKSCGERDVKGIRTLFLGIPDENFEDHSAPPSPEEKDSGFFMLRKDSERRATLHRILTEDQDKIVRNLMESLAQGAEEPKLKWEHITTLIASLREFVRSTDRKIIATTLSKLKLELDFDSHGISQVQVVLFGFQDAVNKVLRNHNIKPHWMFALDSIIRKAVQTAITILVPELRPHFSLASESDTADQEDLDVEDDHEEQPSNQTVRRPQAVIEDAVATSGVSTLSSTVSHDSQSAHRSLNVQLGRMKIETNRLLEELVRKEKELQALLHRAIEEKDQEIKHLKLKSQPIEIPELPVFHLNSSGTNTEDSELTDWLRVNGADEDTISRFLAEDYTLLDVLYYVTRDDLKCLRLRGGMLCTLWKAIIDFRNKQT
Briefly: Inhibition of ASK1 (unknown origin) assessed as residual activity at 1000 nM by KINOMEscan analysis relative to control.

For assay [4], the target named is Proto-oncogene tyrosine-protein kinase receptor Ret (Homo sapiens) (UniProt P07949). The assay can be described thus: Inhibition of RET (unknown origin) assessed as residual activity at 1000 nM by KINOMEscan analysis relative to control.
Assay [5] has as its target Fibroblast growth factor receptor 3 (Homo sapiens) (UniProt P22607). Briefly: Inhibition of FGFR3 (unknown origin) assessed as residual activity at 1000 nM by KINOMEscan analysis relative to control.
Assay [6] relates to Epidermal growth factor receptor (Homo sapiens), P00533 [UNDEFINED MUTATION]. The assay can be described thus: Inhibition of EGFR S752-I759del mutant (unknown origin) assessed as residual activity at 1000 nM by KINOMEscan analysis relative to control.
The target in assay [7] is T2, Tyrosine-protein kinase ZAP-70 (Homo sapiens) (UniProt P43403).
T2 sequence (whole entry): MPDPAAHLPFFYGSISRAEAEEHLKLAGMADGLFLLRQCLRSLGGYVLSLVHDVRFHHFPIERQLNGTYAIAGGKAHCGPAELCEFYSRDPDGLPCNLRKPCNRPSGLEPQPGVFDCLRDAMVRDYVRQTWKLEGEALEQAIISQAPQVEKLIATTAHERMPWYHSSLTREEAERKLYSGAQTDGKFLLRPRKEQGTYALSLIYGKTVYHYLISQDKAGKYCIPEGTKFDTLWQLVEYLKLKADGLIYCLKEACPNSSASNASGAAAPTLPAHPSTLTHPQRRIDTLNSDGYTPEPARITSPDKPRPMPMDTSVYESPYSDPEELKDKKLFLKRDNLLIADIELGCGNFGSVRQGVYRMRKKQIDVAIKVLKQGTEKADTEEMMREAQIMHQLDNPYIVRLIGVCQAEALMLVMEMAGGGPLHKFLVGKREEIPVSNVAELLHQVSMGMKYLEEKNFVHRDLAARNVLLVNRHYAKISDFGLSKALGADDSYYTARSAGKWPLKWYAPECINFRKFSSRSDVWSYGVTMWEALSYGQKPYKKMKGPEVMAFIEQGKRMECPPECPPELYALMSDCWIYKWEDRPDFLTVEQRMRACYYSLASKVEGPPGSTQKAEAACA
Briefly: Inhibition of ZAP70 (unknown origin) assessed as residual activity at 1000 nM by KINOMEscan analysis relative to control.

For assay [8], the target named is Phosphatidylinositol 4-kinase beta (Homo sapiens) (UniProt Q9UBF8). Briefly: Inhibition of PIK4CB (unknown origin) assessed as residual activity at 1000 nM by KINOMEscan analysis relative to control.
Assay [9] deals with High affinity nerve growth factor receptor (Homo sapiens) (UniProt P04629). The assay can be described thus: Inhibition of TRKA (unknown origin) assessed as residual activity at 1000 nM by KINOMEscan analysis relative to control.

Molecules are shown by their SMILES.

Sequence of Fibroblast growth factor receptor 3 (Homo sapiens) (P22607 23-806 limits assumed): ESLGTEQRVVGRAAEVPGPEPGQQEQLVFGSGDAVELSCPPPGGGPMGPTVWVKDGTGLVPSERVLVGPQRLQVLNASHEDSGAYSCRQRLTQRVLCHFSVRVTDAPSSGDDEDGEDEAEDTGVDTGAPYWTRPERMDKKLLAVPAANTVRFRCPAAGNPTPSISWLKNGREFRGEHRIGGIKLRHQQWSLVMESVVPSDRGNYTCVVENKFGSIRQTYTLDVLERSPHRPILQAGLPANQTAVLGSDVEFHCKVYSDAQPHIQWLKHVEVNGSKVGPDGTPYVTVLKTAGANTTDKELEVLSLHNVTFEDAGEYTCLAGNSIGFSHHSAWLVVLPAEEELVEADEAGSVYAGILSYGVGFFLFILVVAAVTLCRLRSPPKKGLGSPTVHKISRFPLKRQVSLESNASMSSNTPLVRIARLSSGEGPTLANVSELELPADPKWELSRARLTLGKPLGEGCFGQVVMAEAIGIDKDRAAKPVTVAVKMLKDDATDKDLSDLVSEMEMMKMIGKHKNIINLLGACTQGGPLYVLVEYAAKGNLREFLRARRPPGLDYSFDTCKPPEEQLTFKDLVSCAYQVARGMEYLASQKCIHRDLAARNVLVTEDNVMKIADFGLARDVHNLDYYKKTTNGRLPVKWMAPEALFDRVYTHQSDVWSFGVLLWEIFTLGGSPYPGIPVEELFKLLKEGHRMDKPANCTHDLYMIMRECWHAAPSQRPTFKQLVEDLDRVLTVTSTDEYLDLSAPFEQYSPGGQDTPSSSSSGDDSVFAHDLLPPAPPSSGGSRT
Sequence of Epidermal growth factor receptor (Homo sapiens), P00533 [UNDEFINED MUTATION] (P00533 whole entry, looked up, stated change not applied): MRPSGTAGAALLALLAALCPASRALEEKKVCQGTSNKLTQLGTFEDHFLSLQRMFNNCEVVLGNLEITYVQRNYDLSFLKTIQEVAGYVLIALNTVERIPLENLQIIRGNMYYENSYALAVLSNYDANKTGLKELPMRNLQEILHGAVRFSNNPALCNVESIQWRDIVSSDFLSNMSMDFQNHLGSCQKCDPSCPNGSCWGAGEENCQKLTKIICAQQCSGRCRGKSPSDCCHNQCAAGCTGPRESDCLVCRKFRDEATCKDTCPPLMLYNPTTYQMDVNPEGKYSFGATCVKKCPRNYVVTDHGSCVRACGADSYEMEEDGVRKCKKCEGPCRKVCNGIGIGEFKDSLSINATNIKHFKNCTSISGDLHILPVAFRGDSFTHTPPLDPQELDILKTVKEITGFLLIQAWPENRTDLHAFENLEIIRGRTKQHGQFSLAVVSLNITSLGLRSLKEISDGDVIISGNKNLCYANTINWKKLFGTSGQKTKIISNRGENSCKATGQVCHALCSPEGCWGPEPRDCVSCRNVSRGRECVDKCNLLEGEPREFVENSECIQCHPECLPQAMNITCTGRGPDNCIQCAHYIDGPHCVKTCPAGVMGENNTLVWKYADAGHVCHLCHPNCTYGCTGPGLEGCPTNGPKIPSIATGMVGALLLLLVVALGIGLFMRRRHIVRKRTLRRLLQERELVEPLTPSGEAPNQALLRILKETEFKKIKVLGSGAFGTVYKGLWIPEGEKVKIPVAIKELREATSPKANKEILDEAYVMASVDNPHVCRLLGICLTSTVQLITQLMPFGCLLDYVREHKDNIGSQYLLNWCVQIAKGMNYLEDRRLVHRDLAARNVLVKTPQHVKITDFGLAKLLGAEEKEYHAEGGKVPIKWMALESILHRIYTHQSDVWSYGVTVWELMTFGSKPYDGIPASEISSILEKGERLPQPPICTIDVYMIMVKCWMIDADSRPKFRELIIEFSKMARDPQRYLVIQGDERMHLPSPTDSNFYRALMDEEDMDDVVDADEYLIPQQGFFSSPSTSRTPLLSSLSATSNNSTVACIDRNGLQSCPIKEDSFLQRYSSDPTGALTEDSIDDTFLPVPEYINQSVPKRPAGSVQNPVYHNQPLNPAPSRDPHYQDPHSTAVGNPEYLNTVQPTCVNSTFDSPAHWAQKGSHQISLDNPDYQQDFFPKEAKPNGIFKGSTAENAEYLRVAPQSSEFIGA
Sequence of Serine/threonine-protein kinase 24 (Homo sapiens) (Q9Y6E0 whole entry, looked up): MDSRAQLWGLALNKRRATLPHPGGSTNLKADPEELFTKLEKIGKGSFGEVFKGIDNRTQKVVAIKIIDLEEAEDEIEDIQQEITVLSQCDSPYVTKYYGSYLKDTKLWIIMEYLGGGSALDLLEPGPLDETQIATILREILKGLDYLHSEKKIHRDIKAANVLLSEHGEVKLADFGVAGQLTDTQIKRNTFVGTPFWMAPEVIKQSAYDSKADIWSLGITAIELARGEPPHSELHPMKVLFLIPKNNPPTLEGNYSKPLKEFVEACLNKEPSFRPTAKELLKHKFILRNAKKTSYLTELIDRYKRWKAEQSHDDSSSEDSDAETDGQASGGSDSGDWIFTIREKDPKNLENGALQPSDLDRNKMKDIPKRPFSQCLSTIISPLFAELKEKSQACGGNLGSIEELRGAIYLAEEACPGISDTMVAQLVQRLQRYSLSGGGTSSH
Sequence of Proto-oncogene tyrosine-protein kinase receptor Ret (Homo sapiens) (P07949 whole entry): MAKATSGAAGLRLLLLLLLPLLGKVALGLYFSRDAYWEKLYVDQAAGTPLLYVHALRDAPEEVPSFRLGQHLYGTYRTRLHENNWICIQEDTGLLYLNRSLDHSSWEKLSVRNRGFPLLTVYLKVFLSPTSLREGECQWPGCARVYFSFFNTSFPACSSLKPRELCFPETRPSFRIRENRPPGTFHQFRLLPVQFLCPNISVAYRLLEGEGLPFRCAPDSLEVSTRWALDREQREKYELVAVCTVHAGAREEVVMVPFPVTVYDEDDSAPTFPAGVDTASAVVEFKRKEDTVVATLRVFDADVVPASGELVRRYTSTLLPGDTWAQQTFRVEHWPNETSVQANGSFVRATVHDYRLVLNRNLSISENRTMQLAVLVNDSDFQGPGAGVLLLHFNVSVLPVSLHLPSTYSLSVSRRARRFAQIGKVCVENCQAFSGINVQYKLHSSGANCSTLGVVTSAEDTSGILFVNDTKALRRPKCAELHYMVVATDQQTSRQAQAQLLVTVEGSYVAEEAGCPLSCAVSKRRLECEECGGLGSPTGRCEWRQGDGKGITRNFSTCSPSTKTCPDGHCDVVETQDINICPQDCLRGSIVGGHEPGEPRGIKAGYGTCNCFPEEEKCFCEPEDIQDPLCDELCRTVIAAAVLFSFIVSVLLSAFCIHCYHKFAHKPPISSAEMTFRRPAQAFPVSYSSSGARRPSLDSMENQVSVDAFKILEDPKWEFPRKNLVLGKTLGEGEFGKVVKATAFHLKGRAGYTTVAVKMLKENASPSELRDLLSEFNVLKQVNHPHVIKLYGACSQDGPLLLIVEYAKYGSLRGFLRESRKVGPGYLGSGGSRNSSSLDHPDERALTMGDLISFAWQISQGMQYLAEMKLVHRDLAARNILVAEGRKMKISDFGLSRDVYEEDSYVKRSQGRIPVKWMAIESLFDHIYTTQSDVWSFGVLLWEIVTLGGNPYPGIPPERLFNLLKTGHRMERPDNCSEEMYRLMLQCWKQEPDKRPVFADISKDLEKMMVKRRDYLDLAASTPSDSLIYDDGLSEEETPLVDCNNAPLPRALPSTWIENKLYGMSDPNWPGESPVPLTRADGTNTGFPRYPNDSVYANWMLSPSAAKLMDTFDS
Sequence of High affinity nerve growth factor receptor (Homo sapiens) (P04629 33-796 limits assumed): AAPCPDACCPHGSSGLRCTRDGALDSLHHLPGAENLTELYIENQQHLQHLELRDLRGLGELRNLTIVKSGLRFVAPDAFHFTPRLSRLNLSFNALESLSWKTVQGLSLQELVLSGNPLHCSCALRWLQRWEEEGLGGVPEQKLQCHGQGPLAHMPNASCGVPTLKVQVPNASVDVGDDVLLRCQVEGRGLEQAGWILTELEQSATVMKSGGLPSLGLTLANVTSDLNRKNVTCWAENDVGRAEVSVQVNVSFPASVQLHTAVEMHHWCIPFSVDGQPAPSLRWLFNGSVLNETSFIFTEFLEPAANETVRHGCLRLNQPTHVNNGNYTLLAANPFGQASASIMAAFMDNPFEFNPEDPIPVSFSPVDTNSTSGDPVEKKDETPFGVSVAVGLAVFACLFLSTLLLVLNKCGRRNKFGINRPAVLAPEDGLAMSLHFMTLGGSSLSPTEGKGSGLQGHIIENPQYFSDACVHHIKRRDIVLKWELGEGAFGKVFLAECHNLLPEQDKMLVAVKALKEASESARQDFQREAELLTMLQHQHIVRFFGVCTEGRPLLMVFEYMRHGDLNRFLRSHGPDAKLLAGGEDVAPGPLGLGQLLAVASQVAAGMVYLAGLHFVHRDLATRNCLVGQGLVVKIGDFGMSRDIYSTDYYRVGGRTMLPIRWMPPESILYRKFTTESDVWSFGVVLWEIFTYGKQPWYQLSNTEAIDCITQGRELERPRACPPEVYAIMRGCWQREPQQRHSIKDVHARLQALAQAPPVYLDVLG

Turning to `COc1cc2ncnc(N[C@H](C)c3cccc4ccccc34)c2cc1OC`, the Activity was determined as 100% in [1]; 100% in assay [2]; 76% in [3]; 92% in [4]; 100% in [5]; 13% in assay [6]. The Activity was 97% in assay [7], 82% in assay [8] and 97% in assay [9].

Consider `COc1cc2nc(C)nc(N[C@H](C)c3cccc(-c4cn[nH]c4)c3)c2cc1OC`, for which the Activity in assay [1] is 61%; in assay [2], 64%; in assay [3], 100%; in assay [4], 94%; in [5], 100%; in [6], 82%. For the same compound, the Activity in assay [7] came to 82%; in [8], 69%; in assay [9], 99%.
